Measurements as given in ChEMBL document CHEMBL6134902, “Novel tacrine-based multi-target directed Ligands: Enhancing cholinesterase inhibition, NMDA receptor antagonism, and CNS bioavailability for Alzheimer's disease treatment” (Eur J Med Chem, 2025).

Tests used:
[1] = human, microsomes, 0.75 h, 3 µM
in vitro [2] = conditions: human, liver microsomes
in vitro [3] = conditions: human, liver microsomes; remark: listed apart in the source
[4] = Lipophilicity, LogD of compound at pH 2.6 by chromatography; assay type: physicochemical; conditions: buffer
[5] = Lipophilicity, LogD of compound at pH 7.4 by chromatography; assay type: physicochemical; conditions: buffer
[6] = Lipophilicity, LogD of compound at pH 10.5 by chromatography; assay type: physicochemical; conditions: buffer
[7] = Toxicity in male BALB/c mouse administered intraperitoneally measured for 48 hrs; conditions: in vivo, route ip
[8] = Drug uptake in plasma of male BALB/c mouse at 15 mg/kg, ip measured after 48 hrs; assay type: ADME, organism-based; conditions: in vivo
[9] = Drug uptake in brain of male BALB/c mouse at 15 mg/kg, ip measured after 48 hrs; assay type: ADME, organism-based; conditions: in vivo
[10] = Cmax in plasma of male Balb/c mouse at 15 mg/kg, ip measured up to 120 mins; assay type: ADME, organism-based
[11] = Tmax in plasma of male Balb/c mouse at 15 mg/kg, ip measured up to 120 mins; assay type: ADME, organism-based
[12] = AUC (0 to 120 mins) in plasma of male Balb/c mouse at 15 mg/kg, ip measured up to 120 mins; assay type: ADME, organism-based
[13] = AUC (infinity) in plasma of male Balb/c mouse at 15 mg/kg, ip measured up to 120 mins; assay type: ADME, organism-based
[14] = Cmax in brain of male Balb/c mouse at 15 mg/kg, ip measured up to 120 mins; assay type: ADME, organism-based
[15] = Tmax in brain of male Balb/c mouse at 15 mg/kg, ip measured up to 120 mins; assay type: ADME, organism-based
[16] = AUC (0 to 120 mins) in brain of male Balb/c mouse at 15 mg/kg, ip measured up to 120 mins; assay type: ADME, organism-based
[17] = AUC (infinity) in brain of male Balb/c mouse at 15 mg/kg, ip measured up to 120 mins; assay type: ADME, organism-based
in vivo = conditions: male, Balb/c, mouse, brain/plasma, ip, 15 mg/kg

SMILES	Drug metabolism [1]	half-life at 0.75 h, 3 µM (in vitro [2])	microsomal CLint at 0.75 h, 3 µM (in vitro [3])	chromatographic logD [4]	chromatographic logD [5]	chromatographic logD [6]	CHI	also measured
COc1ccc2nc3c(c(N)c2c1)CCCC3	13.2 10^6No_unit	32.8 min	42.2 µL/min/mg					
Nc1c2c(nc3ccc(Oc4ccccc4)cc13)CCCC2	473.1 10^6No_unit	330 min	4.2 µL/min/mg	1.83	3.82	4.49	27.6	
Cc1ccc(-c2ccc3nc4c(c(N)c3c2)CCCC4)o1	215.5 10^6No_unit	5.8 min	239 µL/min/mg	1.94	4.06	4.58	29.5	
CC(C)COc1cccc(-c2ccc3nc4c(c(N)c3c2)CCCC4)c1				2.87	5.58	5.79	38.8	
COc1ncc(-c2ccc3nc4c(c(N)c3c2)CCCC4)cn1				1.26	2.94	3.2	19.1	
Nc1c2c(nc3ccc(-c4ccc(Cl)s4)cc13)CCCC2				2.28	4.86	5.42	37.9	
Nc1c2c(nc3ccc(-c4ccoc4)cc13)CCCC2				1.59	3.43	4.08	26.2	
Nc1c2c(nc3ccc(-c4ccncc4)cc13)CCCC2	172.8 10^6No_unit	30 min	46.2 µL/min/mg	0.47	3.52	3.05	20.2	
CN(C)c1cccc(-c2ccc3nc4c(c(N)c3c2)CCCC4)c1				1.4	4.5	4.86	31.6	
Nc1c2c(nc3ccc(-c4cncnc4)cc13)CCCC2	200.7 10^6No_unit	93.7 min	14.8 µL/min/mg	0.99	2.73	2.59	14.7	
Cc1csc(-c2ccc3nc4c(c(N)c3c2)CCCC4)c1	207 10^6No_unit	6.2 min	224 µL/min/mg	2.12	4.41	4.96	33	NOAEL at 48 h [7]: 15 mg/kg; Drug uptake [8]: Active; Drug uptake [9]: Active; Cmax [10]: 945 nM; Tmax [11]: 15 min; AUC(0-t) at 2 h [12]: 0.775 µM·h; AUC(0-inf) [13]: 1.08 µM·h; Cmax [14]: 1470 nM; Tmax [15]: 26.2 min; AUC(0-t) at 2 h [16]: 1.83 µM·h; AUC(0-inf) [17]: 1.96 µM·h; Kp at 2 h (in vivo): 2.36

More lines, main results first:

Drug metabolism [1]	half-life at 0.75 h, 3 µM (in vitro [2])	microsomal CLint at 0.75 h, 3 µM (in vitro [3])	chromatographic logD [4]	chromatographic logD [5]	chromatographic logD [6]	CHI	SMILES	also measured
			1.44	3.24	3.81	23	Nc1c2c(nc3ccc(-c4ccc(F)nc4)cc13)CCCC2	
			1.63	3.69	3.99	25.3	COc1cc(-c2ccc3nc4c(c(N)c3c2)CCCC4)ccn1	
			1.6	3.65	4.15	26	Nc1c2c(nc3ccc(-c4ccc(Cl)nc4)cc13)CCCC2	
			1.77	3.85	4.54	29.6	Nc1c2c(nc3ccc(-c4cccs4)cc13)CCCC2	
			1.78	3.8	4.48	29.9	Nc1c2c(nc3ccc(-c4ccsc4)cc13)CCCC2	
			0.65	1.2	1.4	12.2	COc1ncc(-c2ccc3nc4c(c(N)c3c2)CCCC4)c(OC)n1	
